One assay concerns B16-F1. Briefly: SRB cell growth inhibition (cytotoxicity) assay. Format: cell-based, mouse. Particulars: Mus musculus, B16-F1; read-out: IC50 ± SEM (nM), B16-F1. From the text: (§1) The only compounds which belong to the invention are the ones falling under the scope of formula (XI).
The test system of another assay is A375. Briefly: SRB cell growth inhibition (cytotoxicity) assay. Format: cell-based, human. Particulars: Homo sapiens.
Another assay concerns PC-3. Briefly: cells.
Excerpt: as §1
Cells were stained with SRB solution.
Cells. […] Cells between the third and fifth passages were used for experiments.
Cell growth inhibition studies. […] Cells were stained with sulphorhodamine B (SRB) solution.

In a further assay the test system is DU 145. Briefly: cells. The conditions noted are these: Homo sapiens.
The subject of a further assay is LNCaP. Briefly: cells. Particulars: Homo sapiens.
The test system of the next assay is PPC-1. Briefly: cells. The conditions noted are these: Homo sapiens.
Where [1] appears, read: A-375, 96 h, read-out: IC50 ± SEM (nM), A375.
Setting [2] is: Homo sapiens, PC-3, 96 h, read-out: IC50 ± SEM (nM), PC-3.
Where [3] appears, read: DU-145, 96 h, read-out: IC50 ± SEM (nM), DU 145.
[4] abbreviates: 96 h, read-out: IC50 ± SEM (nM), LNCaP.
Where [5] appears, read: PPC-1, 96 h, read-out: IC50 ± SEM (nM), PPC-1.
Setting [6] is: Homo sapiens, PC-3, 96 h, read-out: IC50 (nM), PC-3.
Where [7] appears, read: DU-145, 96 h, read-out: IC50 ± SEM (nM) Du 145.
Setting [8] is: Homo sapiens, PC-3, read-out: IC50 (nM), PC-3.
Setting [9] is: DU-145, read-out: IC50 (nM), DU 145.
Setting [10] is: PPC-1, read-out: IC50 (nM), PPC-1.

This is an account of results in EP2608671B1, “COMPOUNDS FOR TREATMENT OF CANCER” (Gtx, Inc., priority 2010, dated 2012).

Structures are written as SMILES. Read-outs that look alike come from different tables or passages of the source. A value given as a limit tells only on which side of the number the result lay.

As to `COc1cc(C(=O)c2cccc(-c3ccccc3)c2)cc(OC)c1OC` [1a, Biphenyl-3-yl(3,4,5-trimethoxyphenyl)methanone], the IC50 – broadly, the point on the concentration scale where inhibition reaches its midpoint – stood at 500 ± 200 nM in the assay on B16-F1; 87 ± 15 nM with A375 (setting [1]); 81 nM with PC-3 (setting [2]); 178 nM in the assay with DU 145 (setting [3]); 234 nM in the assay with LNCaP (setting [4]); 85 nM in the assay on PPC-1 (setting [5]).

Regarding `COc1cc(NC(=O)c2csc(-c3ccccc3)n2)cc(OC)c1OC` [2g, 2-Phenyl-N-(3,4,5-trimethoxyphenyl)thiazole-4-carboxamide], the IC50 in the assay on B16-F1 was over 30000 nM; in the assay with A375 (setting [1]), over 30000 nM; in the assay on PC-3 (setting [2]), over 10000 nM; with DU 145 (setting [3]), over 10000 nM; in the assay on PPC-1 (setting [5]), over 10000 nM.

As to `COc1cc(C(=O)c2csc(Nc3ccc(Cl)cc3)n2)cc(OC)c1OC` [5d, (2-((4-Chlorophenyl)amino)thiazol-4-yl)(3,4,5-trimethoxyphenyl)methanone], the IC50 with A375 (setting [1]) is 25 ± 7 nM; in the assay with PC-3 (setting [2]), 33 ± 1 nM; in the assay on DU 145 (setting [3]), 73 ± 1 nM; with LNCaP (setting [4]) it was 45 ± 1 nM; in the assay on PPC-1 (setting [5]), 36 ± 1 nM.

With `Clc1nccc2ccc(-c3ccc4[nH]ccc4c3)cc12` [6d, 1-Chloro-7-(1H-indol-5-yl)-isoquinoline], the IC50 in the assay on PC-3 (Homo sapiens, PC-3, read-out: IC50 ±SEM (nM), PC-3) was 908 nM; in the assay with DU 145 (DU-145, read-out: IC50 ±SEM (nM), DU 145) it was 1640 nM; with LNCaP (read-out: IC50 ±SEM (nM), LNCaP), 703 nM; in the assay on PPC-1 (PPC-1, read-out: IC50 ±SEM (nM), PPC-1) it was 929 nM.

As for `O=S(=O)(c1ccccc1)n1ccnc1-c1ccccc1` [10a, 2-phenyl-1-(phenylsulfonyl)-1H-imidazole], in the assay with PC-3 (setting [6]), the half-inhibitory concentration (IC50) was over 10000 nM.

In the case of `O=S(=O)(c1ccccc1)n1ccnc1-c1ccc(OCc2ccccc2)cc1` [10j, 2-(4-(benzyloxy)phenyl)-1-(phenylsulfonyl)-1H-imidazole], in the assay on PC-3 (setting [6]), the IC50 was over 10000 nM.

`O=[N+]([O-])c1ccc(-c2nccn2S(=O)(=O)c2ccccc2)cc1` [10x, 2-(4-nitrophenyl)-1-(phenylsulfonyl)-1H-imidazole]: in the assay on PC-3 (setting [6]), the IC50 is over 10000 nM.

`COc1cc(C(=O)n2ccnc2-c2ccccc2)cc(OC)c1OC` [12aaa, (2-phenyl-1H-imidazol-1-yl)(3,4,5-trimethoxyphenyl)methanone]: in the assay with PC-3 (setting [6]), the IC50 is over 10000 nM.

As to `COc1ccc(C(=O)n2ccnc2-c2ccccc2)cc1` [12aba], in the assay on PC-3 (read-out: IC50 (nM), PC-3, SRB, 96 h, Table 11), the IC50 was over 10000 nM.

As to `COc1ccc(C(=O)c2c[nH]c(-c3ccccc3)n2)cc1OC` [12ae, (3,4-dimethoxyphenyl)(2-phenyl-1H-imidazol-4-yl)methanone], the IC50 with PC-3 (setting [6]) is over 10000 nM.

For `O=C(c1cccc(F)c1)c1c[nH]c(-c2ccccc2)n1` [12ag, (3-fluorophenyl)(2-phenyl-1H-imidazol-4-yl)methanone], the IC50 with PC-3 (setting [6]) is over 10000 nM.

On to `COc1cc(C(=O)c2c[nH]c(-c3ccc(F)cc3)n2)cc(OC)c1OC` [12ba, (2-(4-fluorophenyl)-1H-imidazol-4-yl)(3,4,5-trimethoxyphenyl)methanone], for which the IC50 in the assay on PC-3 (setting [2]) is 169 ± 12 nM; with DU 145 (setting [7]), 132 ± 24 nM; with LNCaP (setting [4]), 98 ± 2 nM; in the assay with PPC-1 (setting [5]) it was 81 ± 1 nM.

Take `COc1ccc(-c2nc(C(=O)c3cc(OC)c(OC)c(OC)c3)c[nH]2)cc1` [12ca, (2-(4-methoxyphenyl)-1H-imidazol-4-yl)(3,4,5-trimethoxyphenyl)methanone]: the values for the IC50 in the assay on PC-3 (setting [2]), with DU 145 (setting [7]) and with PPC-1 (setting [5]) were 45 ± 1 nM, 48 ± 0.5 nM and 34 ± 0.3 nM, respectively.

In the case of `COc1cc(C(=O)c2cn(Cc3ccccc3)c(-c3ccc(C)cc3)n2)cc(OC)c1OC` [12daa, (1-Benzyl-2-(p-tolyl)-1H-imidazol-4-yl)(3,4,5-trimethoxyphenyl)methanone], the IC50 came out at 466 nM with PC-3 (setting [2]), 1500 nM with DU 145 (setting [7]), 683 nM with LNCaP (setting [4]) and 778 nM with PPC-1 (setting [5]).

For `COc1cc(C(=O)c2c[nH]c(-c3ccc(N(C)C)cc3)n2)cc(OC)c1OC` [12ga, (2-(4-(dimethylamino)phenyl)-1H-imidazol-4-yl)(3,4,5-trimethoxyphenyl)methanone], the IC50 in the assay on PC-3 (setting [2]) is 92 ± 4 nM; in the assay with DU 145 (setting [7]), 95 ± 1 nM; with LNCaP (setting [4]) it was 58 ± 2 nM; in the assay on PPC-1 (setting [5]), 67 ± 0.7 nM.

As for `CN(C)c1ccc(-c2nc(C(=O)c3ccc(F)cc3)c[nH]2)cc1` [12gb, (2-(4-(dimethylamino)phenyl)-1H-imidazol-4-yl)(4-fluorophenyl)methanone], the figures for the IC50 with PC-3 (setting [2]), in the assay with LNCaP (setting [4]) and with PPC-1 (setting [5]) were 81 ± 3 nM, 57 ± 6 nM and 45 ± 0.3 nM, respectively.

As for `COc1ccc(-c2nc(C(=O)c3ccc(F)cc3)c[nH]2)cc1OC` [12hb, (2-(3,4-dimethoxyphenyl)-1H-imidazol-4-yl)(4-fluorophenyl)methanone], the IC50 with A375 (A-375, A375 melanoma cells, 48 h, SRB, read-out: IC50 ± SEM (nM) A375) is 10000 nM; with PC-3 (setting [2]) it was 10000 nM; with DU 145 (setting [7]), 10000 nM; with LNCaP (setting [4]), 2530 nM; in the assay with PPC-1 (setting [5]) it was 2170 ± 48 nM.

For the compound `COc1cc(C(=O)c2c[nH]c(-c3ccc(OCc4ccccc4)cc3)n2)cc(OC)c1OC` [12ja, (2-(4-(benzyloxy)phenyl)-1H-imidazol-4-yl)(3,4,5-trimethoxyphenyl)methanone], the IC50 was found to be 10000 nM with PC-3 (setting [2]), 10000 nM in the assay with DU 145 (setting [7]), 2790 nM in the assay on LNCaP (setting [4]) and 2840 nM in the assay with PPC-1 (setting [5]).

As for `O=C(c1ccc(F)cc1)c1c[nH]c(-c2ccc(OCc3ccccc3)cc2)n1` [12jb, (2-(4-(benzyloxy)phenyl)-1H-imidazol-4-yl)(4-fluorophenyl)methanone], the half-maximal inhibitory concentration (IC50) turned out to be 79 ± 0.4 nM in the assay on PC-3 (setting [2]), 60 ± 3 nM in the assay with DU 145 (setting [7]), 44 ± 7 nM in the assay with LNCaP (setting [4]) and 43 ± 0.2 nM in the assay on PPC-1 (setting [5]).

For the compound `Fc1ccc(-c2ccc3ccnc(-c4ccc(F)cc4)c3c2)cc1` [compound 40, 1,7-Bis-(4-fluoro-phenyl)-isoquinoline], the IC50 came to 19600 nM in the assay with PC-3 (setting [8]); 18400 nM with DU 145 (setting [9]); 13400 nM with LNCaP (read-out: IC50 (nM), LNCaP); 6200 nM in the assay on PPC-1 (setting [10]).

Regarding `O=S(=O)(c1ccc(F)cc1)N1CCCc2ccc(-c3ccc4[nH]ccc4c3)cc21` [compound 41, 1-(4-Fluoro-benzenesulfonyl)-7-(1H-indol-5-yl)-1,2,3,4-tetrahydroquinoline], the 50% inhibitory concentration (IC50) with PC-3 (setting [8]) is 18200 nM; in the assay with DU 145 (setting [9]), 17000 nM; with LNCaP (read-out: IC50 (nM), LNCaP) it was 15800 nM; with PPC-1 (setting [10]), over 20000 nM.

Regarding `O=S(=O)(c1ccc(F)cc1)N1CCc2ccc(Br)cc2C1` [compound 42, 7-Bromo-2-(4-fluoro-benzenesulfonyl)-1,2,3,4-tetrahydro-isoquinoline], the IC50 in the assay on PC-3 (setting [8]) was 23800 nM; in the assay on DU 145 (setting [9]), 24900 nM; with LNCaP (read-out: IC50 (nM), LNCaP), 43600 nM; in the assay on PPC-1 (setting [10]), over 20000 nM.

With `O=S(=O)(c1ccc(F)cc1)N1CCCc2ccc(Br)cc21` [compound 43, 7-Bromo-1-(4-fluoro-benzenesulfonyl)-1,2,3,4-tetrahydroquinoline], the IC50 was 14700 nM with PC-3 (setting [8]); 17200 nM in the assay with DU 145 (setting [9]); 12700 nM in the assay on LNCaP (read-out: IC50 (nM), LNCaP); over 20000 nM in the assay on PPC-1 (setting [10]).

On to `c1ccc(Nc2nccn2C(c2ccccc2)(c2ccccc2)c2ccccc2)cc1` [d, N-Phenyl-1-trityl-1H-imidazol-2-amine], for which the IC50 with PC-3 (setting [2]), in the assay on DU 145 (setting [3]), in the assay on LNCaP (setting [4]) and with PPC-1 (setting [5]) was over 1000 nM each time.

Take `COc1cc(C(=O)c2cn(C(c3ccccc3)(c3ccccc3)c3ccccc3)c(Nc3ccccc3)n2)cc(OC)c1OC` [e, (2-(Phenylamino)-1-trityl-1H-imidazol-4-yl)(3,4,5 trimethoxyphenyl)methanone]: the IC50 with PC-3 (setting [2]), with DU 145 (setting [3]), with LNCaP (setting [4]) and in the assay on PPC-1 (setting [5]) was over 1000 nM in each case.
